Test results: US4886806A, “Flavone-3-carboxylic acids compounds and pharmaceutical compositions containing them” (Kali-Chemie Pharma GmbH, priority 1987, dated 1989)

Key:
[1] = system: male mice; test: Determination of the minimum toxic dose; assay type: in vivo; conditions: max. dose 300 mg/kg, 24 h
Description: 3. Determination of the minimum toxic dose.
Male mice of 20 to 25 g weight were given maximal doses of 300 mg/kg of test substance per os. The animals were carefully watched over a period of three hours for toxicity symptoms. Over a period of twenty-four hours after administration, all symptoms and deaths were recorded. Associated symptoms were also watched and recorded. If death or strongly toxic symptoms were noted, further mice were given increasingly lower doses. The lowest dose which brought about death or strongly toxic symptoms was reported as the minimum toxic dose.

[2] = system: oxygen radical-forming activity of peritoneal exudate cells (PEC) of mice; test: Spontaneous CL and induced CL chemiluminescence test: inhibition of oxygen radical liberation from peritoneal exudate cells (30 min preincubation); assay type: cell-based; design: concentration or dose not given beside the values; conditions: for Inhibition in vitro of the oxygen radical liberation, Chemiluminescence Test % inhibition, Ind. CL: induced CL, after ZyC3b activation; for Inhibition in vitro of the oxygen radical liberation, Chemiluminescence Test % inhibition, Spnt. CL: spontaneous CL, before ZyC3b
Description: 1. To determine the inhibiting effect on the oxygen radical-forming activity of inflamed cells, the in vitro inhibition of the release of oxygen radicals from activated peritoneal exudate cells (=PEC) of mice was determined in the chemiluminescence (CL) test according to the method of Mueller-Peddinghaus (Int. J. Immunopharmac. 6, 455-466 (1984)). […] The intensity of the chemiluminescence is a measurement of the oxygen radical content in the suspension and thus the degree of activity of the inflamed cells. In this, three functionally different parameters are detected, the spontaneous CL, the induced CL and the peak CL. The spontaneous CL and the induced CL on the one hand and the peak CL on the other hand differ from each other because in the first two parameters the test substances are in contact with the cells for a 30 minute preincubation period before the inflammation irritant is added, whereas with the peak CL the cells are first stimulated, and the test substance is added at the peak of their activity. The measurement of the spontaneous CL thus detects the influence of the test substance on the relative rest activity of inflamed cells, the induced CL represents the effect of the test substances on the activatability of the cells and the inhibition of the peak CL indicates the effect of the test substances on the maximum activity of the inflamed cells. 1.1 Production of PEC suspension used in the test. In order to induce the PEC formation, female mice of 20-25 g body weight were each injected i.p. with 2 ml of a 3% solution of thioglycollate in sterile isotonic sodium chloride solution. Twenty four hours after the thioglycollate injection the cells, which predominantly consisted of polymorphonuclear leucocytes, were recovered by washing out of the abdominal cavity and washed twice. As cell culture medium there was added a commercially available solution under the designation RPMI 1640 (pH 7.2) (produced by Flow Laboratories, […], Germany), which contains 10% fetal calf serum (FCS, produced by Seromed GmbH, Munich, Germany) 18 μmol/l sodium bicarbonate and 2 μmol/l L-glutamine. The cell pellets of four animals each time were resuspended in cell culture medium, collected together and the suspension was made up to 2×10^6 cells per ml with cell culture medium. The cell suspensions were kept under ice cooling until their use the same day. 1.2 Production of the complement opsonized zymosan (=ZyC3 b) suspension used for activation. 200 mg zymosan (glycoprotein mixture isolated from the cell walls of brewer's yeast, Sacchomyces […], produced by Sigma Chemical Co., Munich, Germany) were suspended in 10 ml phosphate buffer solution according to Dulbecco (produced by Flow Laboratories, […], Germany), well stirred and heated for thirty minutes in a water bath to 100° C. After cooling, it was centrifuged for five minutes at 4° C. and at 600 ×g and the supernatant was discarded. The sediment was resuspended in 50 ml human serum and incubated for thirty minutes at 37° C. in a shaking water bath. Then it was centrifuged for five minutes at 600 ×g and 420 C., the supernatant decanted and the sediment washed with phosphate buffer solution. The working suspension of 8×10^-3 g ZyC3 b/ml was produced from the sediment by dilution with phosphate buffer solution (Mueller-Peddinghaus et al., Zbl. Vet. Med. B. 30, 559-575). 1.3 Chemiluminescence (CL) measurement (Peak-CL). […] At the end of this preincubation phase, 100 μl lucigenin were added, and in the course of the subsequent sixteen minute incubation phase the spontaneous CL parameter was determined with two measuring points. Then 100 μl ZyC3 b+100 μl phosphate buffer were added, and during the course of the subsequent twenty-four minute cell activation the induced CL parameter was measured with three measuring points. All measurements were determined twice. The parameters spontaneous CL and induced CL were determined on the same day with two separate cell pools.

[3] = system: carrageenin foot edema in male Wistar rats; test: Inhibition of carrageenin foot edema in rats (Winter et al.); assay type: in vivo; conditions: Rattus norvegicus, 2 h after irritant; for inhibition in vivo at 100 µmol/kg: 100 μmol/kg p.o.
Description: A similar volume of isotonic sodium chloride solution was injected in the left hind foot. The volume of the each rat's foot was measured plethysmometrically both before and two hours after administration of the irritant, and the swelling of the foot volume after the carrageenin application was compared to the foot which was treated only with sodium chloride solution The inhibition of edema formation by the test substances in the treated animals was compared in percentage terms with the animals of the untreated control group.

| SMILES | Minimal toxic dose mg/kg mouse p.o. [1] | Inhibition in vitro of the oxygen radical liberation, Chemiluminescence Test % inhibition, Ind. CL [2] | Inhibition in vitro of the oxygen radical liberation, Chemiluminescence Test % inhibition, Spnt. CL [2] | inhibition in vivo at 215 µmol/kg ([3]; ip, 215 μmol/kg i.p.) | inhibition in vivo at 215 µmol/kg ([3]; po, 215 μmol/kg p.o.) | inhibition in vivo at 100 µmol/kg ([3]; po) |
| --- | --- | --- | --- | --- | --- | --- |
| O=C(NCCCCN1CCN(c2ccccn2)CC1)c1c(-c2ccccc2)oc2ccccc2c1=O [Example 4e, 3-{4-[4-(2-pyridyl)-piperazin-1-yl]-butylaminocarbonyl}flavone] | 300 mg/kg | 82% | 95% | 54% | 50% |  |
| O=C(NCCc1ccccn1)c1c(-c2cc(O)c(O)c(O)c2)oc2ccccc2c1=O [Example 53] |  | 83% | 73% | 50% |  |  |
| O.O.O=C(O)C(O)C(O)C(=O)O.O=C(c1c(-c2cc(O)c(O)c(O)c2)oc2ccccc2c1=O)N1CCN(Cc2ccccc2)CC1 [Example 14e, 3',4',5'-trihydroxy-3-[(4-benzylpiperazin-1-yl)carbonyl] -flavone tartrate dihydrate] | > 300 mg/kg | 99% | 98% | 33% |  |  |
| Cl.O=C(c1c(-c2ccccc2)oc2ccccc2c1=O)N1CCN(c2ccccn2)CC1 [Example 1c, 3-{[4-(2-Pyridyl)-piperazin-1-yl]-carbonyl}flavone hydrochloride] | > 300 mg/kg | 39% | 49% | 55% |  | 44% |
| COc1cc(-c2oc3ccccc3c(=O)c2C(=O)N2CCN(c3ccccn3)CC2)cc(OC)c1OC [Example 7b, 3',4',5'-trimethoxy-3-{[4-(2-pyridyl)-piperazin-1-yl]-carbonyl}flavone] | > 300 mg/kg | 50% | 61% |  | 40% |  |
| CCN(CC)CCCOC(=O)c1c(-c2ccccc2)oc2ccccc2c1=O.Cl [Example 3b, 3-[3-(diethylamino)propoxycarbonyl]flavone hydrochloride] | 300 mg/kg | 83% | 94% |  |  |  |
| COc1cc(OC)c2c(=O)c(C(=O)N3CCN(c4ccccn4)CC3)c(-c3ccccc3)oc2c1 [Example 34] |  | 55% | 54% |  | 30% |  |
| CC(=O)Oc1cc(-c2oc3ccccc3c(=O)c2C(=O)N2CCN(c3ccccn3)CC2)cc(OC(C)=O)c1OC(C)=O [Example 39b] |  | 99% | 99% | 62% |  |  |
| O=C(c1c(-c2cccc(O)c2)oc2ccccc2c1=O)N1CCN(Cc2ccccc2)CC1 [Example 30] | > 300 mg/kg | 85% | 85% |  |  |  |
| COc1ccc(-c2oc3ccccc3c(=O)c2C(=O)N2CCN(c3ccccn3)CC2)cc1OC [Example 32b] | > 300 mg/kg | 65% | 71% |  |  |  |
| CN1CCN(CCCCNC(=O)c2c(-c3ccccc3)oc3ccccc3c2=O)CC1 [Example 24] | > 300 mg/kg | 14% | 55% |  |  |  |
| COc1cc(-c2oc3ccccc3c(=O)c2C(=O)N2CCN(c3ccccn3)CC2)cc(OC)c1OC [Example 7a, 3',4',5'-trimethoxy-3-{[4-(2-pyridyl)-piperazin-1-yl]-carbonyl}flavone] | > 300 mg/kg | 65% | 75% |  |  |  |
| O.O=C(O)C(O)C(O)C(=O)O.O=C(c1c(-c2ccccc2)oc2ccccc2c1=O)N1CCN(Cc2ccccc2)CC1 [Example 2b, 3-[(4-benzyl-piperazin-1-yl)-carbonyl]flavone tartrate monohydrate] | > 300 mg/kg | 54% | 67% |  |  | 25% |
| COc1cc(-c2oc3ccccc3c(=O)c2C(=O)NCCCCN2CCN(c3ncccn3)CC2)cc(OC)c1OC [Example 54] | > 300 mg/kg | 83% | 91% | 40% |  |  |
